The values below come from article PMC6713262 (Cell, 2019).

What all share (assay type): cell-based
One test addresses wild-type CB2 (Homo sapiens, UniProt P34972). Nature of the test: Forskolin-stimulated cAMP accumulation. (cAMP levels reflect the balance of adenylyl cyclase and phosphodiesterase activity.)
A further test addresses CB2 (Homo sapiens, UniProt P34972). The test can be described thus: β-arrestin2 recruitment assay. The following applies: for Emax (fold): CB2 β-arrestin2; for EC50: EC50, CB2 β-arrestin2.
The target in the next test is CB1 (Homo sapiens, UniProt P21554). Nature of the test: β-arrestin2 recruitment assay at CB1. Particulars: for Emax (fold): CB1 β-arrestin2. In general terms: Arrestin recruitment assays detect the binding of arrestin to an activated receptor.
CB1, sequence (P21554 whole entry): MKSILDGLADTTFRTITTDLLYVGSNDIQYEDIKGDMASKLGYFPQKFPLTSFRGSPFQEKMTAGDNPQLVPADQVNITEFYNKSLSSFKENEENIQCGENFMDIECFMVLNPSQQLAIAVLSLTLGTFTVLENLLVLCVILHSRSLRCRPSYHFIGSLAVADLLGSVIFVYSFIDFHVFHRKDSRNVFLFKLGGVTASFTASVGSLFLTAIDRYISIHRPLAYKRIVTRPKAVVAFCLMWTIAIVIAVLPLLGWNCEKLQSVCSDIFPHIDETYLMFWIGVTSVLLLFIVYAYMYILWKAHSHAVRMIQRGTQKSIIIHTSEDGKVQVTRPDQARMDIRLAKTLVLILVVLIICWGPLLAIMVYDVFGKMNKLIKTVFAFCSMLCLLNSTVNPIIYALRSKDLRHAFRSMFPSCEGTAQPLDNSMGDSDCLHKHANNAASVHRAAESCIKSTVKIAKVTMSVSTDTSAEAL
The target of another test is CB2 G78L (Homo sapiens, UniProt P34972, G78L). The test can be described thus: Receptor activity at CB2 stabilizing point mutant G78L.
CB2 G78L, sequence (P34972 whole entry G78L): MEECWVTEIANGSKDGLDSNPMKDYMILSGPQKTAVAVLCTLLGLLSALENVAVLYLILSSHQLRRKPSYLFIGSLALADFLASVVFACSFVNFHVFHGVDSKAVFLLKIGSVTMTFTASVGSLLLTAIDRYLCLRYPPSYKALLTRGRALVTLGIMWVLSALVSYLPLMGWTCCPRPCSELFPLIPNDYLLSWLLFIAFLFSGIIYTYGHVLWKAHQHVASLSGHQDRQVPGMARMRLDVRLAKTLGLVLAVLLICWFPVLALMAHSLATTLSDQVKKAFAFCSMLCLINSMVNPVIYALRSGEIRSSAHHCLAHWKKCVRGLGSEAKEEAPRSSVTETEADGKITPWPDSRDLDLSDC
Another test deals with CB2 T127A (Homo sapiens, UniProt P34972, T127A). Nature of the test: Receptor activity at CB2 stabilizing point mutant T127A.
CB2 T127A, sequence (P34972 whole entry T127A): as the sequence (P34972 whole entry G78L) above, with L78G, T127A counted along it
The next test concerns the target CB2 T153L (Homo sapiens, UniProt P34972, T153L). The test can be described thus: Receptor activity at CB2 stabilizing point mutant T153L.
The next test addresses CB2 R242E (Homo sapiens, UniProt P34972, R242E). The test can be described thus: Receptor activity at CB2 stabilizing point mutant R242E.
For the next test, the target named is CB2 G304E (Homo sapiens, UniProt P34972, G304E). Nature of the test: Receptor activity at CB2 stabilizing point mutant G304E.
CB2 G304E, sequence (P34972 whole entry G304E): as the sequence (P34972 whole entry G78L) above, with L78G, G304E counted along it

wild-type CB2, sequence (P34972 whole entry): as the sequence (P34972 whole entry G78L) above, with L78G counted along it
CB2, sequence (P34972 whole entry): as the sequence (P34972 whole entry G78L) above, with L78G counted along it
CB2 R242E, sequence (P34972 whole entry R242E): as the sequence (P34972 whole entry G78L) above, with L78G, R242E counted along it
CB2 T153L, sequence (P34972 whole entry T153L): as the sequence (P34972 whole entry G78L) above, with L78G, T153L counted along it

As usually defined, the IC50 is the point on the concentration scale where inhibition reaches its midpoint. High values mean a need for much substance, low ones inhibition by little substance. One may read the EC50 as the concentration that produces a half-maximal response. A low value points to greater potency. `Cc1c(C(=O)NC23CC4CC(CC(C4)C2)C3)nn(CCCCCO)c1-c1ccccc1` [AM10257, 1-(5-Hydroxypentyl)-4-methyl-5-phenyl-N-tricyclo[3.3.1.1^3,7]dec-1-yl-1H-pyrazole-3-carboxamide]: the IC50 is 35.9 ± 3.2 nM against wild-type CB2; 59.7 ± 8.1 nM against CB2 G78L; 40.1 ± 4.5 nM on CB2 T127A; 46.2 ± 4.6 nM at CB2 T153L; 46.7 ± 11.3 nM against CB2 R242E; 32.1 ± 6.2 nM against CB2 G304E. Besides, on wild-type CB2, the Kb was 5.01 nM. Moreover, at wild-type CB2 (against CP55,940, Figure 1B), the “Functional profile at CB2 (adenylyl cyclase assay)” value is on record as “competitive antagonist/inverse agonist”. The “Functional profile at CB2 (β-arrestin2 recruitment)” value on CB2 is reported as “competitive antagonist/inverse agonist”. For the same compound, the “Emax (fold)” value at CB2 (Figure 1C) was 0.70 ± 0.05 fold; at CB1 (Figure 5C), 2.4 ± 0.1 fold. For the same compound, the EC50 at CB2 (Figure 1C) is 0.53 ± 0.29 nM; at CB2 (Figure 6C) it was 0.2 ± 0.04 nM; on CB1, 51.5 ± 7.4 nM. In addition, the “Functional profile at CB1 (β-arrestin2 recruitment)” value (from here on “Functional profile at CB1”) on CB1 was “partial agonist”.

On to `CC(=O)OCCn1c(C)c(C)sc1=NC(=O)C1C(C)(C)C1(C)C` [MRI2594, 2-(4,5-dimethyl-2-((2,2,3,3-tetramethylcyclopropane-1-carbonyl)imino)thiazol-3(2H)-yl)ethyl acetate], for which the “Functional profile at CB2 (β-arrestin2 recruitment)” value on CB2 was “agonist”. On CB2 (Figure 6C), the “Emax (fold)” value was 2.0 ± 0.2 fold and the concentration for a half-maximal effect (EC50) came to 0.17 ± 0.03 nM. On CB1, the 50% effective concentration (EC50) was found to be 310 ± 54 nM and the “Functional profile at CB1” value is recorded as “agonist”. At CB1 (Figure 6D), the “Emax (fold)” value was determined as 28.0 ± 2.0 fold.

Turning to `CC(=O)OCCn1c(=NC(=O)C2C(C)(C)C2(C)C)sc2cc(C)ccc21` [MRI2687, 2-(6-methyl-2-((2,2,3,3-tetramethylcyclopropane-1-carbonyl)imino)benzo[d]thiazol-3(2H)-yl)ethyl acetate], the “Functional profile at CB2 (β-arrestin2 recruitment)” value on CB2 is “inverse agonist”. For the same compound, the “Emax (fold)” value was found to be 0.75 ± 0.04 fold at CB2 (Figure 6C) and 6.0 ± 0.3 fold on CB1 (Figure 6D). The results for the EC50 on CB2 (Figure 6C) and at CB1 were 0.24 ± 0.06 nM and 114 ± 15 nM, respectively. Moreover, the “Functional profile at CB1” value at CB1 is “partial agonist”.
